Reference: ChEMBL document CHEMBL5505966, “Synthesis and pharmacological characterization of conformationally restricted 2-amino-Adipic acid analogs and carboxycyclopropyl glycines as selective metabotropic glutamate 2 receptor agonists” (Eur J Med Chem, 2024)
Calls of active or inactive are those of the source. The calls are words filed in the database; no cut-off is given here.

What was measured:
[1] = target: Metabotropic glutamate receptor 8 (Rattus norvegicus) (UniProt P70579); experiment: Agonist activity at rat mGluR8 receptor expressed in HEK293 cells at 30 uM by IP-1 HTRF assay; type: functional, cell-based
[2] = target: Metabotropic glutamate receptor 7 (Rattus norvegicus) (UniProt P35400); experiment: Antagonist activity at rat mGluR7 receptor expressed in HEK293 cells by IP-1 HTRF assay; type: functional, cell-based
[3] = target: Metabotropic glutamate receptor 4 (Rattus norvegicus) (UniProt P31423); experiment: Antagonist activity at rat mGluR4 receptor expressed in HEK293 cells by IP-1 HTRF assay; type: functional, cell-based
[4] = target: Metabotropic glutamate receptor 7 (Rattus norvegicus) (UniProt P35400); experiment: Agonist activity at rat mGluR7 receptor expressed in HEK293 cells at 30 uM by IP-1 HTRF assay; type: functional, cell-based
[5] = target: Metabotropic glutamate receptor 5 (Rattus norvegicus) (UniProt P31424); experiment: Antagonist activity at rat mGluR5 receptor expressed in HEK293 cells by IP-1 HTRF assay; type: functional, cell-based
[6] = target: Metabotropic glutamate receptor 1 (Rattus norvegicus) (UniProt P23385); experiment: Agonist activity at rat mGluR1 receptor expressed in HEK293 cells at 30 uM by IP-1 HTRF assay; type: functional, cell-based
[7] = target: Metabotropic glutamate receptor 3 (Rattus norvegicus) (UniProt P31422); experiment: Antagonist activity at rat mGluR3 receptor expressed in HEK293 cells by IP-1 HTRF assay; type: functional, cell-based
[8] = target: Metabotropic glutamate receptor 2 (Rattus norvegicus) (UniProt P31421); experiment: Agonist activity at rat mGluR2 receptor expressed in HEK293 cells at 30 uM by IP-1 HTRF assay; type: functional, cell-based
[9] = target: Metabotropic glutamate receptor 1 (Rattus norvegicus) (UniProt P23385); experiment: Antagonist activity at rat mGluR1 receptor expressed in HEK293 cells by IP-1 HTRF assay; type: functional, cell-based
[10] = target: Metabotropic glutamate receptor 6 (Rattus norvegicus) (UniProt P35349); experiment: Agonist activity at rat mGluR6 receptor expressed in HEK293 cells at 30 uM by IP-1 HTRF assay; type: functional, cell-based
[11] = target: Metabotropic glutamate receptor 2 (Rattus norvegicus) (UniProt P31421); experiment: Antagonist activity at rat mGluR2 receptor expressed in HEK293 cells by IP-1 HTRF assay; type: functional, cell-based
[12] = target: Metabotropic glutamate receptor 6 (Rattus norvegicus) (UniProt P35349); experiment: Antagonist activity at rat mGluR6 receptor expressed in HEK293 cells by IP-1 HTRF assay; type: functional, cell-based
[13] = target: Metabotropic glutamate receptor 5 (Rattus norvegicus) (UniProt P31424); experiment: Agonist activity at rat mGluR5 receptor expressed in HEK293 cells at 30 uM by IP-1 HTRF assay; type: functional, cell-based
[14] = target: Metabotropic glutamate receptor 4 (Rattus norvegicus) (UniProt P31423); experiment: Agonist activity at rat mGluR4 receptor expressed in HEK293 cells at 30 uM by IP-1 HTRF assay; type: functional, cell-based
[15] = target: Metabotropic glutamate receptor 3 (Rattus norvegicus) (UniProt P31422); experiment: Agonist activity at rat mGluR3 receptor expressed in HEK293 cells at 30 uM by IP-1 HTRF assay; type: functional, cell-based
[16] = target: Metabotropic glutamate receptor 8 (Rattus norvegicus) (UniProt P70579); experiment: Antagonist activity at rat mGluR8 receptor expressed in HEK293 cells by IP-1 HTRF assay; type: functional, cell-based
[17] = target: Metabotropic glutamate receptor 2 (Rattus norvegicus, UniProt P31421); experiment: Agonist activity at rat mGluR2 receptor expressed in HEK293 cells by IP-1 HTRF assay; type: functional, cell-based
[18] = target: Metabotropic glutamate receptor 2 (Homo sapiens, UniProt Q14416); experiment: Agonist activity at human recombinant mGluR2 receptor assessed as inhibition of forskolin-stimulated [3H]cAMP accumulation incubated for 20 mins by SPA kit analysis; type: functional
[19] = target: Metabotropic glutamate receptor 3 (Homo sapiens, UniProt Q14832); experiment: Agonist activity at human recombinant mGluR3 receptor assessed as inhibition of forskolin-stimulated [3H]cAMP accumulation incubated for 20 mins by SPA kit analysis; type: functional
[20] = target: Metabotropic glutamate receptor 7 (Rattus norvegicus) (UniProt P35400); experiment: Agonist activity at rat mGluR7 receptor expressed in HEK293 cells at 100 uM by IP-1 HTRF assay; type: functional, cell-based
[21] = target: Metabotropic glutamate receptor 8 (Rattus norvegicus) (UniProt P70579); experiment: Agonist activity at rat mGluR8 receptor expressed in HEK293 cells at 100 uM by IP-1 HTRF assay; type: functional, cell-based
[22] = target: Metabotropic glutamate receptor 1 (Rattus norvegicus) (UniProt P23385); experiment: Agonist activity at rat mGluR1 receptor expressed in HEK293 cells at 100 uM by IP-1 HTRF assay; type: functional, cell-based
[23] = target: Metabotropic glutamate receptor 6 (Rattus norvegicus) (UniProt P35349); experiment: Agonist activity at rat mGluR6 receptor expressed in HEK293 cells at 100 uM by IP-1 HTRF assay; type: functional, cell-based
[24] = target: Metabotropic glutamate receptor 5 (Rattus norvegicus) (UniProt P31424); experiment: Agonist activity at rat mGluR5 receptor expressed in HEK293 cells at 100 uM by IP-1 HTRF assay; type: functional, cell-based
[25] = target: Metabotropic glutamate receptor 4 (Rattus norvegicus) (UniProt P31423); experiment: Agonist activity at rat mGluR4 receptor expressed in HEK293 cells at 100 uM by IP-1 HTRF assay; type: functional, cell-based
[26] = target: Metabotropic glutamate receptor 3 (Rattus norvegicus) (UniProt P31422); experiment: Agonist activity at rat mGluR3 receptor expressed in HEK293 cells at 100 uM by IP-1 HTRF assay; type: functional, cell-based
[27] = target: Metabotropic glutamate receptor 8 (Rattus norvegicus, UniProt P70579); experiment: Agonist activity at rat mGluR8 receptor expressed in HEK293 cells by IP-1 HTRF assay; type: functional, cell-based
[28] = target: Metabotropic glutamate receptor 6 (Rattus norvegicus, UniProt P35349); experiment: Agonist activity at rat mGluR6 receptor expressed in HEK293 cells by IP-1 HTRF assay; type: functional, cell-based; details: read-out: EC50
[29] = target: Metabotropic glutamate receptor 4 (Rattus norvegicus, UniProt P31423); experiment: Agonist activity at rat mGluR4 receptor expressed in HEK293 cells by IP-1 HTRF assay; type: functional, cell-based
[30] = target: Metabotropic glutamate receptor 7 (Rattus norvegicus, UniProt P35400); experiment: Agonist activity at rat mGluR7 receptor expressed in HEK293 cells by IP-1 HTRF assay; type: functional, cell-based
[31] = target: Metabotropic glutamate receptor 5 (Rattus norvegicus, UniProt P31424); experiment: Agonist activity at rat mGluR5 receptor expressed in HEK293 cells by IP-1 HTRF assay; type: functional, cell-based; details: read-out: EC50
[32] = target: Metabotropic glutamate receptor 3 (Rattus norvegicus, UniProt P31422); experiment: Agonist activity at rat mGluR3 receptor expressed in HEK293 cells by IP-1 HTRF assay; type: functional, cell-based
[33] = target: Metabotropic glutamate receptor 1 (Rattus norvegicus, UniProt P23385); experiment: Agonist activity at rat mGluR1 receptor expressed in HEK293 cells by IP-1 HTRF assay; type: functional, cell-based; details: read-out: EC50

Metabotropic glutamate receptor 1 (Rattus norvegicus), sequence (P23385 19-1199 limits assumed): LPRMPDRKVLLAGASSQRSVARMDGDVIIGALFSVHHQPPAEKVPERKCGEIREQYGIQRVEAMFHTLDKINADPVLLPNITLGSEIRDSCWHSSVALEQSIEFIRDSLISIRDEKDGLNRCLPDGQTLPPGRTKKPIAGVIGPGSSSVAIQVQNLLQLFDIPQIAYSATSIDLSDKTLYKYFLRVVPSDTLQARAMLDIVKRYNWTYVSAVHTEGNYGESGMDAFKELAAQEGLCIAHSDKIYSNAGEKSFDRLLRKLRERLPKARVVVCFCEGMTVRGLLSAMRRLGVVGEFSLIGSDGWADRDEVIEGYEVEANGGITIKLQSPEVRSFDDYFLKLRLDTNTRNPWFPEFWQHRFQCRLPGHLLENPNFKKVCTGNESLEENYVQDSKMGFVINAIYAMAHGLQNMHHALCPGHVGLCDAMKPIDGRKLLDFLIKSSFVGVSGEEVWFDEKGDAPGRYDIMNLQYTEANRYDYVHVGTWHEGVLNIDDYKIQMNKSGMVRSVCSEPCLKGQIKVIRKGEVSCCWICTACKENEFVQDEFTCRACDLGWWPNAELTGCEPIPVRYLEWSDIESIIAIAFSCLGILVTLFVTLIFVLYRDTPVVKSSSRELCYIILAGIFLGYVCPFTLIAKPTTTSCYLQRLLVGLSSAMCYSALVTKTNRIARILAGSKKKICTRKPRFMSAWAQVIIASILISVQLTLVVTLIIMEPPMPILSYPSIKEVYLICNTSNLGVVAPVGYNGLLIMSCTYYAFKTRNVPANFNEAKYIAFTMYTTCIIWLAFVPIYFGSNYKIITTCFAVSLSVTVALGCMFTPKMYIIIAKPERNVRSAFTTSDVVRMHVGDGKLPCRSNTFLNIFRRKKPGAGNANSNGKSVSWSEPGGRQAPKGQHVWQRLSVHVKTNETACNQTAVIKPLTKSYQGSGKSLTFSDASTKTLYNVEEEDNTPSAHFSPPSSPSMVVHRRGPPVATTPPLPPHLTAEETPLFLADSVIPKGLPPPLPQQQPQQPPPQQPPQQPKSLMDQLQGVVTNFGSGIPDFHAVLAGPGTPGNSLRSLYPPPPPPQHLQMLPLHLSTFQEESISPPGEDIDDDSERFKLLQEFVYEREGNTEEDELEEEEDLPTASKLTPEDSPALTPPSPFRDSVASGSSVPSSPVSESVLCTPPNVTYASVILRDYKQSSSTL
Metabotropic glutamate receptor 6 (Rattus norvegicus), sequence (P35349 whole entry): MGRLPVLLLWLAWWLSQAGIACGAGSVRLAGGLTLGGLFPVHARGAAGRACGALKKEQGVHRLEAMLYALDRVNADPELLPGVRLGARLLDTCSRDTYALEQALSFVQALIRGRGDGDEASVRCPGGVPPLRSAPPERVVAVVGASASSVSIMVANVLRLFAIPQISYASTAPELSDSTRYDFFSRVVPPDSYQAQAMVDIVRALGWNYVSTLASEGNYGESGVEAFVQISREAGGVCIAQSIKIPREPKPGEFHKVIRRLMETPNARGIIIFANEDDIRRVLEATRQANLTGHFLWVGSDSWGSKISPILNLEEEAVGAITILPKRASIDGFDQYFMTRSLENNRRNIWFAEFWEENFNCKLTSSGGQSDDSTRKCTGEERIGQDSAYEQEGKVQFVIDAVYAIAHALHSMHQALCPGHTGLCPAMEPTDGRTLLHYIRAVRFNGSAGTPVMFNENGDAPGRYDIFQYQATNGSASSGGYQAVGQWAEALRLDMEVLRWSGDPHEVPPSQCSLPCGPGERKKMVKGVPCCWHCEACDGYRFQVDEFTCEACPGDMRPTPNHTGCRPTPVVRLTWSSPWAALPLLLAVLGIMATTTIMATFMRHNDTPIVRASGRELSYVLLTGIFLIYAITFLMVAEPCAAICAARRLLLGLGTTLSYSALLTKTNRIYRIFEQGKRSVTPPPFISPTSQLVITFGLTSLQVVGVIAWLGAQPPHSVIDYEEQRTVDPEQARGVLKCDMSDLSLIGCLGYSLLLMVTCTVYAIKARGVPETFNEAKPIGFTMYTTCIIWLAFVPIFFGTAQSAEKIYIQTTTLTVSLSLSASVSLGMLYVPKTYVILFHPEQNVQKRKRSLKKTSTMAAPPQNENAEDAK
Metabotropic glutamate receptor 7 (Rattus norvegicus), sequence (P35400 whole entry): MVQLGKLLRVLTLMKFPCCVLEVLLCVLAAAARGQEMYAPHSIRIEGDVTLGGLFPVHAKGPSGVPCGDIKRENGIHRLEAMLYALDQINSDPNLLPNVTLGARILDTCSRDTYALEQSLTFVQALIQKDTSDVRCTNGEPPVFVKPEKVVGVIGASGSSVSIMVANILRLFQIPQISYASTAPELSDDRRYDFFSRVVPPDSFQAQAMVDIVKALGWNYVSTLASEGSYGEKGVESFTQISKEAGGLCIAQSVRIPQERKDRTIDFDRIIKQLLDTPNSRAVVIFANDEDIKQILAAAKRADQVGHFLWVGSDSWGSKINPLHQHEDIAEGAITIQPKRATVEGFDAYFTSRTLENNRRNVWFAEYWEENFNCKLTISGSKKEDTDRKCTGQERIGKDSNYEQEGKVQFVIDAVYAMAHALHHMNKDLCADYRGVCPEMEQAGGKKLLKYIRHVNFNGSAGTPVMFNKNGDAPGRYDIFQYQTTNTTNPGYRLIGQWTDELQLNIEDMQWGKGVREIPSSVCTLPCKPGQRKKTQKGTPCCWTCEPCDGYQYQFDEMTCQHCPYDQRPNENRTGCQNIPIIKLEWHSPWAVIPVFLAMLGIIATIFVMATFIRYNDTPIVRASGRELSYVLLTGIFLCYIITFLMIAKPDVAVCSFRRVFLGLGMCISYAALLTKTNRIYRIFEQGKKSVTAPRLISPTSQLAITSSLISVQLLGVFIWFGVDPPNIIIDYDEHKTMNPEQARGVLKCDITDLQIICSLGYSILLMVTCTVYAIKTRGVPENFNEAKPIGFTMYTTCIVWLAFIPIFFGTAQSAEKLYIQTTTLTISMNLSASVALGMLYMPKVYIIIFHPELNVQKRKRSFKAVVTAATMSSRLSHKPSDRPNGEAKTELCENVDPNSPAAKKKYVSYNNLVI
Metabotropic glutamate receptor 3 (Rattus norvegicus), sequence (P31422 23-879 limits assumed): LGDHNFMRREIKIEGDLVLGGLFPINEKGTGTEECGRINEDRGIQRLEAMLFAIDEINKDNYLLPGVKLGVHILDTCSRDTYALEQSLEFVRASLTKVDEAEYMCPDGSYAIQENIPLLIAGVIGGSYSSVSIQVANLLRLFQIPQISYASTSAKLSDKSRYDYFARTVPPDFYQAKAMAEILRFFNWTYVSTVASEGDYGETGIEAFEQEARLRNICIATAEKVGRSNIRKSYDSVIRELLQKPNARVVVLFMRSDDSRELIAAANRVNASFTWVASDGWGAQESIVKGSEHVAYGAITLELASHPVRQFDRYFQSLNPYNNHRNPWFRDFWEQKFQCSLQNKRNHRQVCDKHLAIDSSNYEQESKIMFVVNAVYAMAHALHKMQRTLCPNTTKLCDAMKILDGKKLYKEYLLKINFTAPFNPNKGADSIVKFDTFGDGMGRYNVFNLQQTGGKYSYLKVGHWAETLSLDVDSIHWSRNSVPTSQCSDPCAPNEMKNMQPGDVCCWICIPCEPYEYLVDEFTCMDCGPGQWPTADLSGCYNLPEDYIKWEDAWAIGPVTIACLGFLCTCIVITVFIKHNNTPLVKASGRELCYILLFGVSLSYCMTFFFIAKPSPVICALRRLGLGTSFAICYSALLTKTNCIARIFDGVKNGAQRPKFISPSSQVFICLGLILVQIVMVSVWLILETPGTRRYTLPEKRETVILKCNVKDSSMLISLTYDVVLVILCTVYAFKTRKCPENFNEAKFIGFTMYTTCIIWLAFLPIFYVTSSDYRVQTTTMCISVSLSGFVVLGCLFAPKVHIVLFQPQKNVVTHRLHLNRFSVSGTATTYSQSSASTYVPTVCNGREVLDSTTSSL
Metabotropic glutamate receptor 4 (Rattus norvegicus), sequence (P31423 whole entry): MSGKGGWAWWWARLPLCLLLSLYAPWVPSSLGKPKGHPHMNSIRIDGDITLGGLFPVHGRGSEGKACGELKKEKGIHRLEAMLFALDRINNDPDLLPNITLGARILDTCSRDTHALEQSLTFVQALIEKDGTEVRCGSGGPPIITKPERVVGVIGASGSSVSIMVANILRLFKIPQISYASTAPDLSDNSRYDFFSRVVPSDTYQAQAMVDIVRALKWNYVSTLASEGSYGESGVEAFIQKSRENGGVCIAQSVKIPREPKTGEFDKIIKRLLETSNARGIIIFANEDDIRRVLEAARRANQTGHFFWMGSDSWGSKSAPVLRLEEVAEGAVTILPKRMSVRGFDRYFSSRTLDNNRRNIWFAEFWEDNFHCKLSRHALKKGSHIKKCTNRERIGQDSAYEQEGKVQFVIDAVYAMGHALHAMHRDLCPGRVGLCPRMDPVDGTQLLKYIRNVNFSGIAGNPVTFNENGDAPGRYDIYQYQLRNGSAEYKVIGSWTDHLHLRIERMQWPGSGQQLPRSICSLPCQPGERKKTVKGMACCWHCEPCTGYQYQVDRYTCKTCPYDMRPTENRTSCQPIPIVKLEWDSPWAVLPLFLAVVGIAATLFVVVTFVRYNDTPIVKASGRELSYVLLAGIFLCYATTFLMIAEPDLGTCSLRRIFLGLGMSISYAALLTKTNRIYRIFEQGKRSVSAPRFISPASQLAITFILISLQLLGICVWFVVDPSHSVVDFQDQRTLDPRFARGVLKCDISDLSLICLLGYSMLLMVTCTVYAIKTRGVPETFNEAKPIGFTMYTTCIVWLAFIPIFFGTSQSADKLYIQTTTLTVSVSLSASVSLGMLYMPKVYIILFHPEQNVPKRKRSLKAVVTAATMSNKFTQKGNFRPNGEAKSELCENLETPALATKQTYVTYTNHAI
Metabotropic glutamate receptor 6, sequence (P35349 whole entry): as the sequence (P35349 whole entry) above
Metabotropic glutamate receptor 7, sequence (P35400 whole entry): as the sequence (P35400 whole entry) above
Metabotropic glutamate receptor 4, sequence (P31423 whole entry): as the sequence (P31423 whole entry) above

Row | Compound | Activity [1] | inhibition [2] | inhibition [3] | Activity [4] | inhibition [5] | Activity [6] | inhibition [7] | inhibition [9] | Activity [10] | inhibition [11] | inhibition [12] | Activity [13] | Activity [14] | Activity [15] | inhibition [16] | other results
1 | CC[C@]1(C(=O)O)C[C@@H]1[C@H](N)C(=O)O | inactive | inactive | inactive | inactive | inactive | inactive | inactive | inactive | inactive | inactive | inactive | inactive | inactive | inactive | inactive | Activity [8]: inactive
2 | C[C@@]1(C(=O)O)C[C@@H]1C(N)C(=O)O (mixture of isomers) | inactive | inactive | inactive | inactive | inactive | inactive | inactive | inactive | inactive | inactive | inactive | inactive | inactive | inactive | inactive | EC50 ([17]; read-out: EC50): 8.9 µM
3 | C[C@H]1[C@H](C(=O)O)[C@H]1[C@H](N)C(=O)O | – | – | – | – | – | – | – | – | – | – | – | – | – | – | – | EC50 [18]: 0.008 µM; EC50 [19]: 0.038 µM
4 | N[C@@H](CCC(=O)O)C(=O)O [GLUTAMIC ACID] | – | – | – | – | – | – | – | – | – | – | – | – | – | – | – | EC50 [19]: 9 µM
5 | N[C@H](C(=O)O)[C@H]1C[C@@H]1C(=O)O | – | – | – | – | – | – | – | – | – | – | – | – | – | – | – | EC50 [18]: 0.3 µM; EC50 [19]: 0.6 µM
6 | N[C@H](C(=O)O)[C@H]1[C@@H](CO)[C@@H]1C(=O)O | – | – | – | – | – | – | – | – | – | – | – | – | – | – | – | EC50 [19]: 0.038 µM
7 | N[C@@H](CCP(=O)(O)O)C(=O)O | – | – | – | – | – | – | – | – | – | – | – | – | – | – | – | EC50 [27]: ~30 µM; EC50 [28]: 2.5 µM; EC50 [29]: ~30 µM; EC50 [30]: ~30 µM
8 | N[C@@]1(C(=O)O)CC[C@@H](C(=O)O)C1 | – | – | – | – | – | – | – | – | – | – | – | – | – | – | – | EC50 [19]: 860 µM
9 | CC[C@@]1(C(=O)O)C[C@H]1[C@H](N)C(=O)O | – | inactive | inactive | – | inactive | – | inactive | inactive | – | inactive | inactive | – | – | – | inactive | EC50 [27]: > 30 µM; EC50 [31]: > 30 µM; EC50 [32]: > 30 µM; EC50 [28]: 26.3 µM; EC50 ([17]; read-out: EC50): 1.8 µM; EC50 ([17]; read-out: pEC50 (converted)): 1.82 µM; EC50 [29]: > 30 µM; EC50 [33]: > 30 µM; EC50 [30]: > 30 µM

Now from value to molecule, other results behind:

Row | Activity [1] | inhibition [2] | inhibition [3] | Activity [4] | inhibition [5] | Activity [6] | inhibition [7] | inhibition [9] | Activity [10] | inhibition [11] | inhibition [12] | Activity [13] | Activity [14] | Activity [15] | inhibition [16] | Compound | other results
10 | inactive | inactive | inactive | inactive | inactive | inactive | inactive | inactive | inactive | inactive | inactive | inactive | inactive | inactive | inactive | C[C@]1(C[C@H](N)C(=O)O)C[C@@H]1C(=O)O | Activity [8]: inactive
11 | – | inactive | inactive | – | inactive | – | inactive | inactive | – | inactive | inactive | – | – | – | inactive | CC1(C[C@H](N)C(=O)O)CC1C(=O)O (stereo partly specified) | –
12 | inactive | inactive | inactive | inactive | inactive | inactive | inactive | inactive | inactive | inactive | inactive | inactive | inactive | inactive | inactive | C[C@@]1(C[C@H](N)C(=O)O)C[C@@H]1C(=O)O | EC50 ([17]; read-out: EC50): 7.5 µM
13 | inactive | inactive | inactive | inactive | inactive | inactive | inactive | inactive | inactive | inactive | inactive | inactive | inactive | inactive | inactive | C[C@@]1(C[C@H](N)C(=O)O)C[C@H]1C(=O)O | Activity [8]: inactive
14 | – | inactive | inactive | – | inactive | – | inactive | inactive | – | inactive | inactive | – | – | – | inactive | C[C@@]1(C(=O)O)C[C@@H]1C[C@H](N)C(=O)O (mixture of isomers) | Activity [20]: inactive; Activity [21]: inactive; Activity [22]: inactive; Activity [23]: inactive; Activity [24]: inactive; EC50 ([17]; read-out: EC50): 10 µM; EC50 ([17]; read-out: pEC50 (converted)): 15.8 µM; Activity [25]: inactive; Activity [26]: inactive
15 | inactive | inactive | inactive | inactive | inactive | inactive | inactive | inactive | inactive | inactive | inactive | inactive | inactive | inactive | inactive | C[C@]1(C[C@H](N)C(=O)O)C[C@H]1C(=O)O | Activity [8]: inactive
16 | inactive | inactive | inactive | inactive | inactive | inactive | inactive | inactive | inactive | inactive | inactive | inactive | inactive | inactive | inactive | C[C@]1(C(=O)O)C[C@@H]1[C@H](N)C(=O)O | EC50 ([17]; read-out: EC50): 4.1 µM
17 | inactive | inactive | inactive | inactive | inactive | inactive | inactive | inactive | inactive | inactive | inactive | inactive | inactive | inactive | inactive | C[C@]1(C(=O)O)C[C@H]1C(N)C(=O)O (mixture of isomers) | Activity [8]: inactive
